Source: patent US11028127B2, “Peptides capable of reactivating p53 mutants” (Yeda Research and Development Co. Ltd., priority 2013, dated 2021)
Like-named read-outs stand apart in the source and are kept apart here. Where no end group is shown, it is not given here.

Tests used:
[1] = target: p53 DBD (Homo sapiens, UniProt P04637); settings: cited from earlier work
[2] = system: SKBR3 cells expressing endogenous R175H p53; settings: SKBR3 ShCon cells, 5 ug/ml, 18 hours
Method: FIG. 16 is a bar graph illustrating the effect of the indicated peptides on activation of Mut-p53 by measuring transactivation of p53 target genes as determined by qRT-PCR. SKBR3 ShCon cells and SKBR3 Shp53 cells knocked down for p53 expression were used. The cells were plated in 12-well dishes and the indicated peptides were added directly to the medium at a concentration of 5 ug/ml. 18 hours later cells were harvested, followed by qRT-PCR analysis. Expression level of p21, PUMA and Mdm2 was evaluated. FIG. 16 illustrates the relative fold induction of transcription of the tested genes in the various samples relative to their transcription level in non-treated cells. GAPDH mRNA was measured in parallel as a control.
RNA was obtained using Macherey-Nagel NucleoSpin RNA II Kit on cells pellet according to the manufacturer's protocol. Aliquots of 0.4-1 μg were reverse transcribed using Bio-RT 2000 (Bio-Lab) and random hexamer primers. Quantitative real-time polymerase chain reaction (QRT-PCR) was performed on an ABI 7300 instrument (Applied Biosystems) using PerfeCTa SYBR Green FastMix ROX (Quanta). RT-PCR primers used are presented in Table 1 (primers sequences are presented 5′ to 3′).
The tested peptides were further tested for their effect on p53 target gene expression in SKBR3 cells expressing endogenous R175H p53. […] In essence, these cells were plated in 12-well dishes; the indicated peptides were added directly to the medium at a concentration of 5 ug/ml. 18 hours later cells were harvested, followed by qRT-PCR analysis. Expression level of p21, PUMA and Mdm2 was evaluated. Expression of those genes in non-treated cells is considered background and all results were normalized to it, as well as to GAPDH.

[3] = Crystal violet viability assay; type: cell-based; settings: human, shp53 (Mut-p53 knockdown) subline
Description: FIGS. 15A and 15B are bar graphs illustrating the effect of the various indicated peptides on the viability of breast cancer cells expressing different Mut-p53 isoforms, as determined by crystal violet assay. FIG. 15A: MDA-MB-231 cells expressing Mut-p53 with a mutation at position 280 of the DBD. FIG. 15B: SKBR3 cells expressing Mut-p53 with mutation at position 175 within the DBD. The bar graphs in FIGS. 15A and 15B show for each tested peptide the optical density reads at 595 nm, reflecting the number of cells in the plate after treatment, normalized to the non-treated (NT) samples.
Cells were cultured in 96 wells plates with 2500-4000 cells/well in 0.1 ml and incubated overnight at 37° C. in order to adhere to the plate. Serial dilutions of different peptides (0.5 μg/ml) were added in 0.1 ml aliquots and the plates incubated for additional 48 h at 37° C. Then medium was removed and cell lysis was determined by staining the cells with crystal violet (0.5%) in methanol/water (1:4, v/v), 50 μl each well, for 10 min, followed by 3 washes with PBS. Afterwards, 10% acetic acid (50 μl) was added to each well and shaken for 10 min. Then, automatic plate reading was performed at 595 nm.
Experiments using different cancer cell lines expressing endogenously different p53 mutant isoforms were performed. FIGS. 15A and 15B illustrate two representative experiments performed on MDA-MB-231 (FIG. 15A) and SKBR3 (FIG. 15B) breast cancer cells expressing Mut-p53 with mutations at positions 280 or 175, respectively, within the DNA Binding Domain (DBD). To examine the peptides' specificity for Mut-p53, the control used was such cells with a knockdown of Mut-p53 (shp53).

[4] = system: H1299 cells stably transfected with Mut-p53 (ts) A135V; assay: qRT-PCR of p53 target genes (p21, PUMA, Mdm2); type: cell-based; settings: 5 ug/ml, 18 hours, 37° C., relative to non-treated cells; positive control (32° C.) 9-11 fold
Method: H1299 cells are p53 null and are widely used for p53 research. H1299 cells stably transfected with Mut-p53 (ts) A135V were used. […] 18 hours later cells were harvested, followed by extraction of RNA, cDNA synthesis and real time PCR analysis. The expression level of 3 representative p53 target genes, p21, PUMA and Mdm2, was examined.
For the in vivo functional screening, several experimental systems were used. One system is based on H1299 cells, which are p53 null and are widely used for p53 research. H1299 cells stably transfected with Mut-p53 (ts) A135V were used. This form of p53 is a temperature sensitive mutant, which has a mutant conformation at 37° C. and a WT conformation at 32° C. […] 18 hours later cells were harvested, followed by extraction of RNA, cDNA synthesis and real time PCR analysis. The expression level of 3 representative p53 target genes was examined; p21, PUMA and Mdm2. Expression of genes in H1299-ts at 37° C. is considered as background level and all results are normalized to it, and also to the GAPDH housekeeping gene. Expression of genes in H1299-ts at 32° C. represents WT p53 conformation and therefore serves as a positive control.
Several tested peptides indeed caused a significant increase in the expression of p21, PUMA and Mdm2. This was the case for pCAP-130, pCAP-135, pCAP-142, pCAP-144 and pCAP-148. […]

[5] = Solubility in DMSO; type: physicochemical; settings: at a concentration of 10 mg/ml
Description: Addition of a poly arginine tail to peptides dramatically increases the solubility of peptides with a high content of hydrophobic amino acids. […] Lead peptides were further subjected to rigorous examination of effects on cell viability in a Mut-p53 specific manner.

[6] = target: T1, Mut-p53 (R175H p53) (Homo sapiens, UniProt P04637, R175H); assay: p53/DNA binding ELISA kit (R&D), binding to p53-RE DNA; type: biochemical; settings: H1299-R175H p53 cell extracts, vs background (NT)
T1 construct: a hot spot full length mutant p53 Mut-p53 R175H (R175H p53); expressed in transfected cells; host or cells: H1299 (p53-null) cells stably overexpressing R175H p53; cell extract
Description: A commercial p53/DNA binding kit (R&D) was used, according to manufacturer instructions. Briefly, 96 well plates were coated with anti-p53 antibody overnight. Cell extracts containing p53 were reacted with an oligonucleotide that contains a p53 consensus binding site, labeled with biotin, in the presence or absence (NT) of test peptides. WT p53 is expected to bind this DNA binding site as well as to the antibody coating the test wells of the plate. Excess p53 and oligos are washed away and streptavidin-HRP is used to quantify the amount of oligos in the well, which is proportional to the DNA bound by p53. TMB assay was performed to determine HRP levels (450 nm). The results are presented as relative absorbance (at 450 nm) (Y-Axis) of each tested sample. MCF7 and the H1299-Mut-p53 (ts) A135V cells serve as positive controls for WT p53.
For these experiments, a commercial p53/DNA binding kit of “R&D” (Cat-DYC1355-5 Lot-1273366FA) was used, in accordance with manufacturer guide lines. Briefly, 96 well plates are coated with anti-p53 antibody overnight. Cell extracts containing p53 are reacted with an oligonucleotide that contains a p53 consensus binding site (provided in the kit), labeled with biotin, in the presence or absenc.
e (NT) of test peptides. WT p53 is expected to bind this DNA binding site as well as to the antibody coating the test wells of the plate. Excess p53 and oligos were washed away and streptavidin-HRP was used to quantify the amount of oligos in the well, which is proportional to the DNA bound by p53. TMB assay was performed to determine HRP (ES001-1L-K) levels (450 nm).
To measure the effect of the tested peptides on DNA binding of Mut-p53, a commercial ELISA kit, (R&D Systems DYC1355-5, Lot-1273366FA), was used as a high-throughput assay to quantify p53 activation. This kit uses a 96-well plate format. The kit was used according to manufacturer's instructions. Wells were coated with anti-p53 antibody overnight. Cell extracts containing p53 were reacted with a biotin labeled oligonucleotide containing a p53 consensus binding site (included in the kit). WT p53 is expected to bind this oligo as well as the antibody coating the wells. Excess p53 and oligo were washed away in wash buffer (0.05% Tween 20 in PBS, pH 7.2-7.4; R&D Systems, Catalog #WA126). Then, streptavidin-HRP (R&D Systems, Part 890803, provided in the kit) was added for 15-45 min to quantify the amount of oligo in the well, which is proportional to the DNA bound by p53. If the addition of a peptide to Mut-p53 extracts increases ELISA reading compared to background, this peptide is considered as functionally effective and may be selected for further analysis. […] As with the conformational screening, MCF7 and the H1299-Mut-p53 (ts) A135V cells served as positive controls for WT p53. Extracts were added to the wells coated with αp53-Ab, and after several washing steps, streptavidin-HRP was added for 1 hour, and then plates were washed again and TMB (substrate to HRP) assay was performed.

[7] = target: T2, R175H p53 (Homo sapiens, UniProt P04637, R175H); assay: TK-RGC-luc luciferase reporter assay in H1299 p53−/− cells; type: cell-based; settings: peptides added 24 hours after transfection, read at 48 hours
T2 construct: a hot spot full length mutant p53 Mut-p53 R175H (R175H p53); expressed in transfected cells; host or cells: H1299 p53-/- cells, transient transfection
Method: (§1) FIG. 12 is a bar graph illustrating the relative luciferase activity (cLuc/gLuc) as measured in the various tested samples. Transient transfection of H1299 p53^−/− cells was performed with plasmids expressing WT p53, R175H p53, R249S p53 or empty vector as control, together with TK-RGC-luc, where luciferase expression is under control of a tandem array of multiple p53-responsive elements. 24 hours after transfection, cells were treated with the test peptides. 48 hours after transfection, a sample of the culture medium was taken for bioluminescence measurements.
(§2) The oligonucleotide (RGC-W) that has the sequence 5′-[…]-3′ (SEQ ID NO:362), and the oligonucleotide mutant RGC oligonucleotide (RGC-M) that has the sequence 5′-[…]-3′ (SEQ ID NO:363), are both derived from Kern et al. (Kern, S. E., et al., Identification of p53 as a sequence-specific DNA-binding protein. Science, 1991. 252(5013): p. 1708-11), and serve as a consensus binding sites for WT p53.
(§3) These motifs were cloned into the KPN and Eco53IK sites in pCLuc Mini-TK 2 Vector (NEB, Cat No. N0324S ). The Luciferase construct was used to assess transcriptional activation of p53 in test cells.
(§4) H1299 p53-null cells were cultured overnight and then transfected with the luciferase constructs using MaxFect Transfection Agent (Mediatech) according to the manufacturer's protocol. Prior to the transfection, cell medium was exchanged to OPTI-MEM.
(§5) The cells were treated with different peptides 24 hours after transfection. After additional 24 hours, growth medium was collected to 96 black plates: 40 μl for Cluc assay, and 20 μl for Gluc assay. Assay was performed using Turner BioSystems Modulus Microplate. Value was calculated by Cluc/gluc/NT (non-treated cells).
(§6) As additional screening strategy used to identify reactivating peptides was performed in vivo and is based on a reporter gene assay. It measures p53 transcriptional activity by quantifying the activity of a reporter gene, placed under the control of a promoter containing 17 repeats of a p53 consensus binding site (RGC). The luciferase assay is performed on living cells and therefore provides an indication on the effect of test peptides on Mut-p53 function in the context of intact cells.
(§7) For the in vivo luciferase based screening, H1299 cells were used. Transient transfection of these p53^−/− cells was performed with vectors expressing WT p53, R175H p53, R249S p53 or empty vector as control (Suad, O., et al., Structural basis of restoring sequence-specific DNA binding and transactivation to mutant p53 by suppressor mutations. J. Mol. Biol., 2009. 385(1): p. 249-65). Cells were also co-transfected with TK-RGC-luc (CAT. No. NEB, N0324S). 24 hours after transfection, cells were treated with the test peptides. […]

[8] = target: T3, R249S p53 (Homo sapiens, UniProt P04637, R249S); assay: as above; type: cell-based; settings: peptides added 24 hours after transfection, read at 48 hours
T3 construct: expressed in transfected cells; host or cells: H1299 p53-/- cells, transient transfection
Method: as §1, §2, §3, §4, §5, §6, §7

Compound: COc1ccc(/C=C/c2nc(NCCCN(C)C)c3ccccc3n2)cc1 [CP-31398]
- binding to the p53 DBD by NMR [1]: failed to detect any binding

Compound: IRGRIIRRRRRRRRRR [pCAP-155]
- transactivation of p53 target genes (p21, PUMA, Mdm2) [2]: among the highest transactivation levels
- cytotoxicity at 48 h ([3]; MDA-MB-231 shp53 (Mut-p53 knockdown) breast cancer cells, read-out: reduction in viability, MDA-MB-231 shp53 cells): 30 to 40%
- cytotoxicity at 48 h ([3]; SKBR3 shp53 (Mut-p53 knockdown) breast cancer cells, read-out: reduction in viability, SKBR3 shp53 cells): 30 to 40%

Compound: GGGGGGGGGRRRRRRR [pCAP-76, negative control peptide]
- induction of transcription of p53 target genes p21, PUMA and Mdm2 [4]: did not cause induction of p53 targets

Compound: YRRLLIGMMW [pCAP-25]
- solubility in DMSO [5]: insoluble

Compound: TRILCIVRKKRRQRRRRGDR [pCAP-75]
- binding of H1299-R175H p53 extracts to p53-RE DNA [6]: elevate the binding of H1299-R175H p53 extracts to p53-RE DNA
- transcription from TK-RGC-luc in the presence of R175H p53 [7]: induce transcription from TK-RGC-luc
- transcription from TK-RGC-luc in the presence of R249S p53 [8]: induce transcription from TK-RGC-luc
